Measurements taken from US20210222225A1, “Medium for Disk Diffusion Method to Evaluate Antibiotic Sensitivity” (priority 2018, published 2021).

Columns and labels:
Format in all cases: cell-based
[1] = tested on: Pseudomonas aeruginosa ATCC27853 strain; assay: Colistin disk diffusion on modified Mueller-Hinton agar, PAE
Procedure: (§1) To each MHA thus modified was added protamine (Sigma-Aldrich, St Louis, Mo., USA) at a concentration of 100 μg/ml, and solidification was performed. Then, on a surface of the medium was evenly inoculated each of colistin-susceptible (S) or -resistant (R) Acinetobacter calcoaceticus-baumannii complex (ACB) strain, Pseudomonas aeruginosa ATCC27853 strain, Escherichia coli ATCC25922 strain, and mcr-1-harboring Enterobacter aerogenes strain, and a colistin disk was placed thereon. Subsequently, a diameter of a growth inhibition zone (colistin inhibition zone), which had been formed clear by diffusion of colistin to the agar around the colistin disk, was measured.
As in Example 1, a concentration of agar particles (BD Diagnostic, Sparks, Md., USA) in Mueller-Hinton broth medium (BD Diagnostic) was adjusted to 17 g/L or 5.1 g/L that is 30% of 17 g/L. To select a concentration of protamine, which can enhance diffusion of colistin from a disk without interfering with bacterial growth, while using the protamine at various concentrations, protamine (Sigma-Aldrich, St Louis, Mo., USA) was added to the medium at concentrations of 1 mg/ml, 700 μg/ml, 400 μg/ml, 300 μg/ml, 200 μg/ml, 150 μg/ml, 100 μg/ml, and 50 μg/ml. Each medium thus modified was solidified. Then, on a surface of each medium was evenly inoculated each of colistin-susceptible (S) or -resistant (R) Acinetobacter calcoaceticus-baumannii complex (ACB) strain, Pseudomonas aeruginosa ATCC27853 strain, and mcr-1-harboring Enterobacter aerogenes strain, and a colistin disk was placed thereon. Then, it was determined whether each strain was grown, and a diameter of a growth inhibition zone, which had been formed around the disk, was measured.

[2] = tested on: colistin-susceptible strains; assay: Colistin disk diffusion, colistin-susceptible strains as a group (average, differences); details: for Average, diameter (mm) of colistin inhibition zone, colistin-susceptible strains / Difference (S vs ACB-R), diameter (mm) of colistin inhibition zone / Difference (S vs mcr-1), diameter (mm) of colistin inhibition zone: protamine 100 μg/ml
Procedure: as §1
(§2) As in Example 1, a concentration of agar particles (BD Diagnostic, Sparks, Md., USA) in Mueller-Hinton broth medium (BD Diagnostic) was adjusted to 5.1 g/L, which is 30% of 17 g/L, and protamine (Sigma-Aldrich, St Louis, Mo., USA) was added thereto at a concentration of 150 μg/ml or 100 μg/ml. Then, solidification was performed. To compare effects depending on concentrations of agar and protamine, Muller-Hinton agar medium (BD Diagnostic) containing agar at a concentration of 17 g/L and medium obtained by adding, to the Muller-Hinton agar medium, protamine at a concentration of 100 μg/ml were prepared as controls. On a surface of each medium thus prepared was evenly inoculated each of colistin-susceptible (S) or -resistant (R) Acinetobacter calcoaceticus-baumannii complex (ACB) strain, Pseudomonas aeruginosa ATCC27853 strain, and mcr-1-harboring Enterobacter aerogenes strain, and a colistin disk was placed thereon. Then, it was determined whether each strain was grown, and a diameter of a growth inhibition zone, which had been formed clear around the disk, was measured. The results are illustrated in FIG. 1.
The following four bacterial strains were used to determine conditions for agar: colistin-susceptible (S) or -resistant (R) Acinetobacter calcoaceticus-baumannii complex (ACB) strain (N=2), Pseudomonas aeruginosa ATCC27853 strain, and mcr-1-harboring Enterobacter aerogenes strain. A concentration of agar particles (BD Diagnostic, Sparks, Md., USA) in Mueller-Hinton broth medium (BD Diagnostic) was adjusted to 17 g/L or 5.1 g/L that is 30% of 17 g/L. To each modified MHA was added protamine (Sigma-Aldrich, St Louis, Mo., USA) at a concentration of 100 μg/ml.
(§3) On a surface of each medium thus prepared was evenly inoculated each of colistin-susceptible (S) or -resistant (R) Acinetobacter calcoaceticus-baumannii complex (ACB) strain, Pseudomonas aeruginosa ATCC27853 strain, and mcr-1-harboring Enterobacter aerogenes strain, and a colistin disk was placed thereon. Then, it was determined whether each strain was grown, and a diameter of a colistin inhibition zone, which had been formed clear around the disk, was measured. The results are illustrated in FIGS. 2A and 2B. Pictures of an inhibition zone around the disk were taken for each strain, and the results are illustrated in FIGS. 3A, 3B, 4A, 4B, 5A, 5B, 6A and 6B.

[3] = tested on: colistin-resistant strains; assay: Colistin disk diffusion, colistin-resistant strains as a group
Procedure: as §2, with “On a surface of each medium thus prepared was evenly inoculated each of colistin-susceptible (S) or -resistant (R) Acinetobacter calcoaceticus-baumannii complex (ACB) strain, Pseudomonas aeruginosa ATCC27853 strain, and mcr-1-harboring Enterobacter aerogenes strain, and a colistin disk was placed thereon.” left out, “The results are illustrated in FIG. 1.” left out
as §3, with “The results are illustrated in FIGS. 2A and 2B. Pictures of an inhibition zone around the disk were taken for each strain, and the results are illustrated in FIGS. 3A, 3B, 4A, 4B, 5A, 5B, 6A and 6B.” left out

[4] = agar 5.1 g/L (30%) compared with 17 g/L, FIG. 1
[5] = agar 5.1 g/L and protamine 100 μg/ml compared with agar 17 g/L, FIGS. 2A to 6B

## colistin
[1]; 30% agar, protamine 50 μg/ml
  Disk diffusion (mm): 17 mm
[1]; 30% agar, protamine 100 μg/ml
  Diameter (mm) of colistin inhibition zone: 16 mm
  Disk diffusion (mm): 18 mm
[1]; 30% agar, protamine 150 μg/ml
  Disk diffusion (mm): 18 mm
[1]; 30% agar, protamine 200 μg/ml
  Disk diffusion (mm): 20 mm
[1]; 30% agar, protamine 300 μg/ml
  Disk diffusion (mm): 6 mm
[1]; 30% agar, protamine 400 μg/ml
  Disk diffusion (mm): 6 mm
[1]; 30% agar, protamine 700 μg/ml
  Disk diffusion (mm): 6 mm
[1]; 30% agar, protamine 1,000 μg/ml
  Disk diffusion (mm): 6 mm
[1]; 40% agar, protamine 100 μg/ml
  Diameter (mm) of colistin inhibition zone: 15 mm
[1]; 50% agar, protamine 100 μg/ml
  Diameter (mm) of colistin inhibition zone: 14 mm
[1]; 60% agar, protamine 100 μg/ml
  Diameter (mm) of colistin inhibition zone: 15 mm
[1]; 70% agar, protamine 100 μg/ml
  Diameter (mm) of colistin inhibition zone: 14 mm
[1]; 80% agar, protamine 100 μg/ml
  Diameter (mm) of colistin inhibition zone: 14 mm
[1]; 90% agar, protamine 100 μg/ml
  Diameter (mm) of colistin inhibition zone: 13 mm
[1]; 100% agar, protamine 50 μg/ml
  Disk diffusion (mm): 14 mm
[1]; 100% agar, protamine 100 μg/ml
  Diameter (mm) of colistin inhibition zone: 13 mm
  Disk diffusion (mm): 14 mm
[1]; 100% agar, protamine 150 μg/ml
  Disk diffusion (mm): 14 mm
[1]; 100% agar, protamine 200 μg/ml
  Disk diffusion (mm): 13 mm
[1]; 100% agar, protamine 300 μg/ml
  Disk diffusion (mm): 14 mm
[1]; 100% agar, protamine 400 μg/ml
  Disk diffusion (mm): 15 mm
[1]; 100% agar, protamine 700 μg/ml
  Disk diffusion (mm): 17 mm
[1]; 100% agar, protamine 1,000 μg/ml
  Disk diffusion (mm): 18 mm
[2]; 30% agar
  Average, diameter (mm) of colistin inhibition zone, colistin-susceptible strains: 16 mm
  Difference (S vs ACB-R), diameter (mm) of colistin inhibition zone: 5 mm
  Difference (S vs mcr-1), diameter (mm) of colistin inhibition zone: 5 mm
[2]; 40% agar
  Average, diameter (mm) of colistin inhibition zone, colistin-susceptible strains: 15 mm
  Difference (S vs ACB-R), diameter (mm) of colistin inhibition zone: 4 mm
  Difference (S vs mcr-1), diameter (mm) of colistin inhibition zone: 5 mm
[2]; 50% agar
  Average, diameter (mm) of colistin inhibition zone, colistin-susceptible strains: 14 mm
  Difference (S vs ACB-R), diameter (mm) of colistin inhibition zone: 4 mm
  Difference (S vs mcr-1), diameter (mm) of colistin inhibition zone: 3 mm
[2]; 60% agar
  Average, diameter (mm) of colistin inhibition zone, colistin-susceptible strains: 14 mm
  Difference (S vs ACB-R), diameter (mm) of colistin inhibition zone: 1 mm
  Difference (S vs mcr-1), diameter (mm) of colistin inhibition zone: 4 mm
[2]; 70% agar
  Average, diameter (mm) of colistin inhibition zone, colistin-susceptible strains: 14 mm
  Difference (S vs ACB-R), diameter (mm) of colistin inhibition zone: 3 mm
  Difference (S vs mcr-1), diameter (mm) of colistin inhibition zone: 4 mm
[2]; 80% agar
  Average, diameter (mm) of colistin inhibition zone, colistin-susceptible strains: 13 mm
  Difference (S vs ACB-R), diameter (mm) of colistin inhibition zone: 1 mm
  Difference (S vs mcr-1), diameter (mm) of colistin inhibition zone: 4 mm
[2]; 90% agar
  Average, diameter (mm) of colistin inhibition zone, colistin-susceptible strains: 13 mm
  Difference (S vs ACB-R), diameter (mm) of colistin inhibition zone: 1 mm
  Difference (S vs mcr-1), diameter (mm) of colistin inhibition zone: 3 mm
[2]; 100% agar
  Average, diameter (mm) of colistin inhibition zone, colistin-susceptible strains: 13 mm
  Difference (S vs ACB-R), diameter (mm) of colistin inhibition zone: 2 mm
  Difference (S vs mcr-1), diameter (mm) of colistin inhibition zone: 3 mm
[2]; [4]
  size of a growth inhibition zone in the colistin-susceptible strains: increased
[2]; [5]
  diameter of the growth inhibition zone in the colistin-susceptible strains: remarkably increased
[3]; [4]
  size of a growth inhibition zone in the colistin-resistant strains: maintained
[3]; [5]
  size of the growth inhibition zone in the colistin-resistant strains: no changes
